Experimental data published in publication PMC12487869, “Toward Imaging of the GABA Transporter Type 1 In Vivo: Quantitative Evaluation of 4 Novel PET Radiotracers in Nonhuman Primates” (Journal of Nuclear Medicine, 2025).

Key:
Format in all cases: in vivo, rhesus monkeys (Macaca mulatta)
GAT-1 [1] = molecular target: T1, GAT-1 (Macaca mulatta, UniProt H9ELS5); assay: Time stability of VT with shortened scan duration; conditions: for Mean percent difference in VT on shortening scan from 180 to 120 min: baseline, 3 monkeys; for Mean percent difference in VT with respect to the 180-min value: blocking condition
T1 construct: from tissue; host or cells: brain of living rhesus monkeys (in vivo PET)
T1 sequence (H9ELS5 1-599): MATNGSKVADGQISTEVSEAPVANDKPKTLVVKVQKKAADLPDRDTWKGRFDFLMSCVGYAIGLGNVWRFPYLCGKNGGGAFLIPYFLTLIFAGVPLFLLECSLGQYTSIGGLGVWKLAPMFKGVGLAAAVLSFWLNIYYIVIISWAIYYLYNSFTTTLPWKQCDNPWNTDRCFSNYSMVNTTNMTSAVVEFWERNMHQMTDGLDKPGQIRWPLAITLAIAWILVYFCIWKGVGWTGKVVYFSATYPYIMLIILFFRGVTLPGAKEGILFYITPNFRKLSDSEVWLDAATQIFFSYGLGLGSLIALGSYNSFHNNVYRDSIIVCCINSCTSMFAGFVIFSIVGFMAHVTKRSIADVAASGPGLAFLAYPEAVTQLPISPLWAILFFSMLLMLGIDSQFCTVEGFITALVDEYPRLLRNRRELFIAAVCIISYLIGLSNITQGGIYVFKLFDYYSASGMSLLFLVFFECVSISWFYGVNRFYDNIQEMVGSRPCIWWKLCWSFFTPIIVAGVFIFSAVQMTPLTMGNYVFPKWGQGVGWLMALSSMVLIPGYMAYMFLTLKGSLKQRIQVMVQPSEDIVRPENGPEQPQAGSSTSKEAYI
Method: Finally, to assess the possibility of reducing scan duration, time stability was assessed for the most promising radiotracer by sequentially shortening the time–activity curves from 180 to 60 min and reestimating the kinetic parameters. Scan-time reduction was deemed possible if the VT values from these shortened time–activity curves were within 10% of those estimated with the full time–activity curves.

GAT-1 [2] = molecular target: T1, GAT-1; assay: Guo plot comparing baseline VT of two radiotracers (relative affinity and BPND)
Source text: (§1) Occupancy plots ([26]) were used to estimate tiagabine occupancy and the nondisplaceable volume of distribution (VND). This VND value was used to compute the nondisplaceable binding potential (BPND = VT/VND − 1). To compare the performance between 2 radiotracers, a Guo plot ([27]) was created, using baseline VT values, to assess the relative affinity and BPND values of each radiotracer.

GAT-1 [3] = molecular target: T1, GAT-1; assay: Occupancy plots from baseline and tiagabine blocking PET scans (occupancy, VND, BPND); design: key to BPND: BPND = VT/VND − 1 (dimensionless); conditions: for VND: occupancy plot; for Occupancy: tiagabine 0.5 mg/kg occupancy measured with this radiotracer
Method: (§2) Before each scan, each monkey was sedated with alfaxalone (2 mg/kg), midazolam (0.3 mg/kg), and dexmedetomidine (0.01 mg/kg), and anesthesia was maintained with 1.5%–2.5% isoflurane. Heart rate, blood pressure, respiration rate, and oxygen saturation were monitored continuously. An intravenous line was placed in the saphenous or cephalic vein for delivery of the radiotracer, as well as tiagabine during blocking studies (0.5 mg/kg administered 19 ± 4 min before radiotracer injections). A catheter was placed in the radial or tibial artery for blood sampling.
as §1

GAT-1 [4] = molecular target: T1, GAT-1; assay: PET brain imaging with kinetic modeling (1TCM), baseline and tiagabine blocking scans; conditions: for Median VT across ROIs: 1TCM
Method: Twenty scans were acquired from 4 rhesus monkeys (Macaca mulatta). Each monkey underwent baseline and blocking scans with ^18F-GATT-31, ^18F-GATT-34, ^18F-GATT-39, or ^18F-GATT-44 (Fig. 1) on a Focus-220 small-animal PET scanner (Siemens Healthineers).
as §2
Before injection, a transmission scan was acquired. Starting with injection of the radiotracer, PET emission data were acquired in list-mode format and binned into 45 frames (6 × 30 s, 3 × 1 min, 2 × 2 min, and 34 × 5 min).
For region-of-interest (ROI) definition, each PET image was registered to an in-house rhesus monkey anatomical MRI template using the concatenation of a rigid-body transformation between the summed PET image (0–10 min) and corresponding monkey’s MRI (using the FMRIB Linear Image Registration Tool) and a nonlinear transformation matrix estimated between the monkey’s MRI and the MRI template (BioImage Suite software version 3.01). Regional time–activity curves were extracted for the following 11 ROIs: brain stem, caudate, cerebellum, cingulate cortex, frontal cortex, hippocampus, insula, occipital cortex, putamen, temporal cortex, and thalamus.
For each baseline and blocking scan, kinetic analysis was performed using a 1-tissue compartment model (1TCM), a reversible 2-tissue compartment model (2TCM; k4 > 0), and an irreversible 2-tissue compartment model (2TiCM; k4 = 0), including a blood volume fraction (Vb) term and a time-delay term. Vb was estimated for each time–activity curve using the whole-blood curve fitted with a sum of exponentials. The time delay (Δt) between the input function and the brain was estimated by fitting the first 10 min of the whole-brain time–activity curve to a 1TCM with 3 parameters: K1, Vb, and Δt (k2 was set to 0 because of the negligible radiotracer washout during the first 10 min). This estimated time delay value was then used in the time–activity curve fits. The primary parameters of interest were the influx constant (K1, expressed in microliters per minute per cubic centimeter, since values were low), the volume of distribution (VT, expressed in milliliters per cubic centimeter), and the net influx constant (Ki, expressed in milliliters per minute per cubic centimeter) for 2TiCM.

[5] = Metabolite analysis of arterial plasma (unmetabolized parent fraction), column-switching HPLC; conditions: mean ± SD
Method: Arterial blood samples were collected for each scan to measure the input function. Metabolite analysis was performed using an automatic column-switching high-performance liquid chromatography system ([22]) for 7 arterial blood samples collected at 5, 15, 30, 60, 90, 120, and 180 min. The radiometabolite-corrected arterial plasma input function was obtained by calculating the product of the fitted total plasma (fitted with a sum of exponentials) and unmetabolized parent fraction curves (using an integrated γ-function ([23])).

- Mean percent difference in VT on shortening scan from 180 to 120 min (GAT-1 [1]; hippocampus): 1%
- Mean percent difference in VT on shortening scan from 180 to 120 min (GAT-1 [1]; thalamus): −12%
- Mean percent difference in VT with respect to the 180-min value (GAT-1 [1]; frontal cortex): −5%
- Mean percent difference in VT with respect to the 180-min value (GAT-1 [1]; thalamus): 3%
- KD ratio (KD^GATT-31/KD^GATT-44) (GAT-1 [2]; Guo plot slope using measured fp values): 1.06
- BPND predicted higher than for ^18F-GATT-31 (GAT-1 [2]; Guo plot y-intercept, baseline VT): approximately 17%
- BPND (GAT-1 [3]; Average of ROIs, baseline): 2.88 ± 0.59
- BPND (GAT-1 [3]; Average of ROIs, blocking): 0.90 ± 0.13
- BPND (GAT-1 [3]; Brain stem, baseline, BPND = VT/VND – 1 with averaged VND): 1.98 ± 0.48
- BPND (GAT-1 [3]; Brain stem, blocking, BPND = VT/VND – 1 with averaged VND): 0.66 ± 0.23
- BPND (GAT-1 [3]; Caudate nucleus, baseline): 1.57 ± 0.15
- BPND (GAT-1 [3]; Caudate nucleus, blocking): 0.45 ± 0.12
- BPND (GAT-1 [3]; Cerebellum, baseline): 2.84 ± 0.44
- BPND (GAT-1 [3]; Cerebellum, blocking): 0.83 ± 0.15
- BPND (GAT-1 [3]; Cingulate cortex, baseline): 3.91 ± 0.44
- BPND (GAT-1 [3]; Cingulate cortex, blocking): 1.46 ± 0.20
- BPND (GAT-1 [3]; Frontal cortex, baseline): 3.26 ± 0.52
- BPND (GAT-1 [3]; Frontal cortex, blocking): 1.04 ± 0.04
- BPND (GAT-1 [3]; Hippocampus, baseline): 2.40 ± 1.25
- BPND (GAT-1 [3]; Hippocampus, blocking): 0.64 ± 0.08
- BPND (GAT-1 [3]; Insula, baseline): 4.08 ± 0.76
- BPND (GAT-1 [3]; Insula, blocking): 1.25 ± 0.08
- BPND (GAT-1 [3]; Occipital cortex, baseline): 4.19 ± 0.84
- BPND (GAT-1 [3]; Occipital cortex, blocking): 1.32 ± 0.13
- BPND (GAT-1 [3]; Putamen, baseline): 2.09 ± 0.06
- BPND (GAT-1 [3]; Putamen, blocking): 0.64 ± 0.14
- BPND (GAT-1 [3]; Temporal cortex, baseline): 4.10 ± 1.41
- BPND (GAT-1 [3]; Temporal cortex, blocking): 1.20 ± 0.05
- BPND (GAT-1 [3]; Thalamus, baseline): 1.24 ± 0.11
- BPND (GAT-1 [3]; Thalamus, blocking): 0.36 ± 0.20
- VND (GAT-1 [3]; monkey 1): 1.03 mL/cm^3
- VND (GAT-1 [3]; monkey 2): 0.96 mL/cm^3
- VND (GAT-1 [3]; monkey 3): 0.64 mL/cm^3
- VND, mean ± SD across monkeys (GAT-1 [3]; occupancy plots, 3 monkeys, average rSE of 16%): 0.88 ± 0.21 mL/cm^3
- Occupancy (GAT-1 [3]; monkey 1): 65%
- Occupancy (GAT-1 [3]; monkey 2): 70%
- Occupancy (GAT-1 [3]; monkey 3): 71%
- Occupancy (overall) (GAT-1 [3]; tiagabine blocking): 69%
- Median VT across ROIs (GAT-1 [4]; after blocking with tiagabine 0.5 mg/kg): 1.7 mL/cm^3
- Median VT across ROIs (GAT-1 [4]; baseline): 3.5 mL/cm^3
- VT (GAT-1 [4]; Average of ROIs, baseline, 3 monkeys, mean ± SD): 3.40 ± 0.52 mL/cm^3
- VT (GAT-1 [4]; Average of ROIs, blocking (tiagabine 0.5 mg/kg), 3 monkeys, mean ± SD): 1.66 ± 0.11 mL/cm^3
- VT (GAT-1 [4]; Brain stem, baseline, averaged across 3 monkeys, mean ± SD): 2.61 ± 0.42 mL/cm^3
- VT (GAT-1 [4]; Brain stem, blocking (tiagabine 0.5 mg/kg), 3 monkeys, mean ± SD): 1.45 ± 0.20 mL/cm^3
- VT (GAT-1 [4]; Caudate nucleus, baseline, 3 monkeys, mean ± SD): 2.25 ± 0.13 mL/cm^3
- VT (GAT-1 [4]; Caudate nucleus, blocking (tiagabine 0.5 mg/kg), 3 monkeys, mean ± SD): 1.27 ± 0.11 mL/cm^3
- VT (GAT-1 [4]; Cerebellum, baseline, 3 monkeys, mean ± SD): 3.36 ± 0.39 mL/cm^3
- VT (GAT-1 [4]; Cerebellum, blocking (tiagabine 0.5 mg/kg), 3 monkeys, mean ± SD): 1.60 ± 0.13 mL/cm^3
- VT (GAT-1 [4]; Cingulate cortex, baseline, 3 monkeys, mean ± SD): 4.30 ± 0.39 mL/cm^3
- VT (GAT-1 [4]; Cingulate cortex, blocking (tiagabine 0.5 mg/kg), 3 monkeys, mean ± SD): 2.16 ± 0.18 mL/cm^3
- VT (GAT-1 [4]; Frontal cortex, baseline, 3 monkeys, mean ± SD): 3.73 ± 0.46 mL/cm^3
- VT (GAT-1 [4]; Frontal cortex, blocking (tiagabine 0.5 mg/kg), 3 monkeys, mean ± SD): 1.79 ± 0.04 mL/cm^3
- VT (GAT-1 [4]; Hippocampus, baseline, 3 monkeys, mean ± SD): 2.98 ± 1.10 mL/cm^3
- VT (GAT-1 [4]; Hippocampus, blocking (tiagabine 0.5 mg/kg), 3 monkeys, mean ± SD): 1.44 ± 0.07 mL/cm^3
- VT (GAT-1 [4]; Insula, baseline, 3 monkeys, mean ± SD): 4.46 ± 0.67 mL/cm^3
- VT (GAT-1 [4]; Insula, blocking (tiagabine 0.5 mg/kg), 3 monkeys, mean ± SD): 1.97 ± 0.07 mL/cm^3
- VT (GAT-1 [4]; Occipital cortex, baseline, 3 monkeys, mean ± SD): 4.55 ± 0.74 mL/cm^3
- VT (GAT-1 [4]; Occipital cortex, blocking (tiagabine 0.5 mg/kg), 3 monkeys, mean ± SD): 2.04 ± 0.11 mL/cm^3
- VT (GAT-1 [4]; Putamen, baseline, 3 monkeys, mean ± SD): 2.71 ± 0.05 mL/cm^3
- VT (GAT-1 [4]; Putamen, blocking (tiagabine 0.5 mg/kg), 3 monkeys, mean ± SD): 1.44 ± 0.12 mL/cm^3
- VT (GAT-1 [4]; Temporal cortex, baseline, 3 monkeys, mean ± SD): 4.48 ± 1.24 mL/cm^3
- VT (GAT-1 [4]; Temporal cortex, blocking (tiagabine 0.5 mg/kg), 3 monkeys, mean ± SD): 1.93 ± 0.05 mL/cm^3
- VT (GAT-1 [4]; Thalamus, baseline, 3 monkeys, mean ± SD): 1.96 ± 0.10 mL/cm^3
- VT (GAT-1 [4]; Thalamus, blocking (tiagabine 0.5 mg/kg), 3 monkeys, mean ± SD): 1.19 ± 0.17 mL/cm^3
- Radiotracer clearance time (half-life = ln(2)/k2) (GAT-1 [4]; brain, baseline): 175 ± 42 min
- Blood volume fraction (Vb) (GAT-1 [4]; mean ± SD, n = 66 (11 ROIs × 6 scans)): 0.036 ± 0.013 mL/cm^3
- Overall spatial correlation (r) of regional distribution with ^11C-flumazenil (GAT-1 [4]; nonhuman primates, P < 0.01, previously acquired ^11C-flumazenil data): 0.87
- Parent compound ([5]; 30 min): 88 ± 4%
- Parent compound ([5]; 90 min): 83 ± 6%
Compound: Cc1ccccc1C(=CCCN1CCCC(C(=O)O)C1)c1ccccc1[18F] (stereo not drawn) [^18F-GATT-44]
